This is an account of results in article PMC4657974, “Positive Allosteric Modulation of Kv Channels by Sevoflurane: Insights into the Structural Basis of Inhaled Anesthetic Action” (PLoS ONE, 2015).

Holding throughout (type): cell-based
The target in test [1] is T1, K-Shaw2 (Drosophila melanogaster, UniProt P17972).
T1 construct: gene Shaw; full-length channel, homotetramer, expressed in Xenopus oocytes from cRNA
T1 sequence (P17972 1-498): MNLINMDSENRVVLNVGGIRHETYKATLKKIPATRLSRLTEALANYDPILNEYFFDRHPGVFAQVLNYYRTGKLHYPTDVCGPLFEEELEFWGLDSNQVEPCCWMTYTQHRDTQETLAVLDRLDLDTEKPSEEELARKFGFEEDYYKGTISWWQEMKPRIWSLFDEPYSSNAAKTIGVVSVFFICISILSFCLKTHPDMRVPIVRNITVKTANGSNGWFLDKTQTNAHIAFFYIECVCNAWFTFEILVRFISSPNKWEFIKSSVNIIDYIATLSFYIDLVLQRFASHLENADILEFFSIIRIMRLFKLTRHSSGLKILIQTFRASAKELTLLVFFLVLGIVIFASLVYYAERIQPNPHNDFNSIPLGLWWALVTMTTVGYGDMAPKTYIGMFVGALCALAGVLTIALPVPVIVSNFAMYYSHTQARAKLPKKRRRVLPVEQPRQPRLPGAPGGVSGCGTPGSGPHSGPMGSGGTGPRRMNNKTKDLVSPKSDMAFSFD
The test is described as follows: two-electrode voltage clamp, Xenopus oocytes, Hill fit. The following applies: inhibition; pH 7.4; 21-23 °C; voltage not given; read-out: K 1; cited from earlier work. From the text:
two-electrode voltage clamp, Xenopus oocytes, Hill fit on K-Shaw2
A general note: Two-electrode voltage clamp holds a large cell at a set potential and records current.

Another test concerns the target T2, ΔT1-K-Shaw2 (Drosophila melanogaster, UniProt P17972, DEL2-155).
T2 construct: gene Shaw; T1 domain deleted (lacks residues 2-155), homotetramer, expressed in Xenopus oocytes
T2 sequence (P17972 with tags, fused parts or gaps DEL2-155): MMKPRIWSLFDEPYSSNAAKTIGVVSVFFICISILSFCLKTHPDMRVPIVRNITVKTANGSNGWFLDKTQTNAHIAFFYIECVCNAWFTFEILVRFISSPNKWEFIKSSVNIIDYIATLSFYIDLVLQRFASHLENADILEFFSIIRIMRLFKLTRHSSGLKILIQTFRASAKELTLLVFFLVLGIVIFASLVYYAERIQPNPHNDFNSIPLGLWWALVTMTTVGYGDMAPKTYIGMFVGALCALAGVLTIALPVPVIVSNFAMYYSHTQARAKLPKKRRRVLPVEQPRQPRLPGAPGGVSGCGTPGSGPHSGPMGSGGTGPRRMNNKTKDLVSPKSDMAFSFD
Described as above. Conditions: read-out: K 1. From the text: two-electrode voltage clamp, Xenopus oocytes, Hill fit on ΔT1-K-Shaw2

Test [2] addresses T1, K-Shaw2. The experiment in a line: two-electrode voltage clamp, Xenopus oocytes, double Hill fit. The following applies: read-out: K 1. From the text: two-electrode voltage clamp, Xenopus oocytes, double Hill fit on K-Shaw2 | Solid line is the best-fit double Hill equation to the K-Shaw2 data

On to `ClC(Cl)Cl` [chloroform], for which the IC50 at K-Shaw2 [1] is 700 µM.
As for `FC(F)(F)C(Cl)Br` (centres unmarked) [halothane], the IC50 at ΔT1-K-Shaw2 is 380 µM; at K-Shaw2 [1], 260 µM.
In the case of `FC(F)OC(Cl)C(F)(F)F` (centres unmarked) [isoflurane], the IC50 on K-Shaw2 [1] was 1690 µM.
Take `CCCCO` [n-butanol]: the results for the IC50 on ΔT1-K-Shaw2 and on K-Shaw2 [1] were 16400 µM and 10100 µM, respectively.
Consider `CC(C)c1cccc(C(C)C)c1O` [propofol], for which the IC50 on K-Shaw2 [1] is 60 µM.
Consider `FCOC(C(F)(F)F)C(F)(F)F` [sevoflurane], for which the EC50 at K-Shaw2 [2] amounted to 80 µM.
